In the assay the test system is MV-4-11 cells. Description: Gene expression microarray analysis (Affymetrix PrimeView) and GSEA. It counts as cell-based, human. The arrangement: RFU PODN (11730768_x_at) / Fold change /veh PODN (11730768_x_at) / RFU LINC00158 (11744669_a_at) / Fold change /veh LINC00158 (11744669_a_at) / RFU DUSP10 (11751237_a_at) / Fold change /veh DUSP10 (11751237_a_at) / RFU ID3 (11757404_x_at) / Fold change /veh ID3 (11757404_x_at) / RFU PLEKHG5 (11737974_s_at) / Fold change /veh PLEKHG5 (11737974_s_at) / RFU LRRC4B (11730491_at) / Fold change /veh LRRC4B (11730491_at) / RFU GIMAP4 (11747438_a_at) / Fold change /veh GIMAP4 (11747438_a_at) / RFU KRT8 (11758183_x_at) / Fold change /veh KRT8 (11758183_x_at) / RFU CNN1 (11734310_a_at) / Fold change /veh CNN1 (11734310_a_at) / RFU VPS37D (11726825_at) / Fold change /veh VPS37D (11726825_at) / RFU C10orf10 (11716522_x_at) / Fold change /veh C10orf10 (11716522_x_at) / RFU KIR2DL2 /// KIR2DL4 /// KIR2DL5A /// KIR2DL5B /// KIR2DS1 /// KIR2DS2 /// KIR2DS3 /// KIR2DS4 /// KIR3DL3 /// KIR3DL3 /// KIR3DS1 (11738374_at) / Fold change /veh KIR2DL2 /// KIR2DL4 /// KIR2DL5A /// KIR2DL5B /// KIR2DS1 /// KIR2DS2 /// KIR2DS3 /// KIR2DS4 /// KIR3DL3 /// KIR3DL3 /// KIR3DS1 (11738374_at) / RFU C1QL1 (11718748_at) / Fold change /veh C1QL1 (11718748_at) / RFU TMPRSS4 (11747572_a_at) / Fold change /veh TMPRSS4 (11747572_a_at) / RFU HAMP (11756126_x_at) / Fold change /veh HAMP (11756126_x_at) / RFU RNFT2 (11725882_a_at) / Fold change /veh RNFT2 (11725882_a_at) / RFU NR4A2 (11747474_a_at) / Fold change /veh NR4A2 (11747474_a_at) / RFU ABCC12 (11746883_a_at) / Fold change /veh ABCC12 (11746883_a_at) / RFU TMEM136 (11760407_x_at) / Fold change /veh TMEM136 (11760407_x_at) / RFU CLDN22 /// WWC2 (11732394_at) / Fold change /veh CLDN22 /// WWC2 (11732394_at) / RFU HLA-DPB1 (11760878_x_at) / Fold change /veh HLA-DPB1 (11760878_x_at) / RFU SPINT1 (11716480_a_at) / Fold change /veh SPINT1 (11716480_a_at) / RFU GAP43 (11754022_s_at) / Fold change /veh GAP43 (11754022_s_at) / RFU A4GNT (11735810_at) / Fold change /veh A4GNT (11735810_at) / RFU PRB3 (11715151_x_at) / Fold change /veh PRB3 (11715151_x_at) / RFU TUBB4B (11761932_at) / Fold change /veh TUBB4B (11761932_at) / RFU CAPN14 (11732068_a_at) / Fold change /veh CAPN14 (11732068_a_at) / RFU TMCC2 (11721928_a_at) / Fold change /veh TMCC2 (11721928_a_at) / RFU IRGQ (11745062_a_at) / Fold change /veh IRGQ (11745062_a_at) / RFU FAM174B (11720279_a_at) / Fold change /veh FAM174B (11720279_a_at) / RFU TMPRSS4 (11748680_a_at) / Fold change /veh TMPRSS4 (11748680_a_at) / RFU FAM212B (11763350_a_at) / Fold change /veh FAM212B (11763350_a_at) / RFU PLEKHG5 (11743358_a_at) / Fold change /veh PLEKHG5 (11743358_a_at) / RFU ZSCAN30 (11745921_a_at) / Fold change /veh ZSCAN30 (11745921_a_at) / RFU CMKLR1 (11741424_a_at) / Fold change /veh CMKLR1 (11741424_a_at) / RFU LOC101060620 /// MAPK8IP1 (11723275_at) / Fold change /veh LOC101060620 /// MAPK8IP1 (11723275_at) / RFU SPTSSB (11747773_x_at) / Fold change /veh SPTSSB (11747773_x_at) / RFU PRSS12 (11739890_at) / Fold change /veh PRSS12 (11739890_at) / RFU BIN1 (11741810_x_at) / Fold change /veh BIN1 (11741810_x_at) / RFU WNT11 (11732464_a_at) / Fold change /veh WNT11 (11732464_a_at) / RFU C10orf10 (11716521_a_at) / Fold change /veh C10orf10 (11716521_a_at) / RFU C5orf56 (11738089_at) / Fold change /veh C5orf56 (11738089_at) / RFU CYB561 (11721691_x_at) / Fold change /veh CYB561 (11721691_x_at) / RFU ANKRD19P (11752326_a_at) / Fold change /veh ANKRD19P (11752326_a_at) / RFU OR2T12 /// OR2T33 /// OR2T8 (11738714_s_at) / Fold change /veh OR2T12 /// OR2T33 /// OR2T8 (11738714_s_at) / RFU VCAN (11748164_a_at) / Fold change /veh VCAN (11748164_a_at) / RFU JSRP1 (11732532_at) / Fold change /veh JSRP1 (11732532_at) / RFU KRTAP10-11 (11738290_x_at) / Fold change /veh KRTAP10-11 (11738290_x_at) / RFU MYO3A (11730013_a_at) / Fold change /veh MYO3A (11730013_a_at) / RFU EBF3 (11725865_a_at) / Fold change /veh EBF3 (11725865_a_at) / RFU CAMK2N1 (11719241_x_at) / Fold change /veh CAMK2N1 (11719241_x_at) / RFU C5orf56 (11738088_a_at) / Fold change /veh C5orf56 (11738088_a_at) / RFU OLFML3 (11715873_a_at) / Fold change /veh OLFML3 (11715873_a_at) / RFU LOC100653217 /// NTM (11731650_a_at) / Fold change /veh LOC100653217 /// NTM (11731650_a_at) / RFU MAPK11 (11762145_a_at) / Fold change /veh MAPK11 (11762145_a_at) / RFU FIZ1 (11724087_x_at) / Fold change /veh FIZ1 (11724087_x_at) / RFU OASL (11726364_x_at) / Fold change /veh OASL (11726364_x_at) / RFU SOX15 (11748057_x_at) / Fold change /veh SOX15 (11748057_x_at) / RFU CD79A (11719716_a_at) / Fold change /veh CD79A (11719716_a_at) / RFU HIST1H1D (11736915_at) / Fold change /veh HIST1H1D (11736915_at) / RFU CASKIN2 (11723855_a_at) / Fold change /veh CASKIN2 (11723855_a_at) / RFU LOC730098 (11760151_x_at) / Fold change /veh LOC730098 (11760151_x_at) / RFU OR4N2 (11742367_at) / Fold change /veh OR4N2 (11742367_at) / RFU PRRT2 (11749266_a_at) / Fold change /veh PRRT2 (11749266_a_at) / RFU SNX32 (11753110_a_at) / Fold change /veh SNX32 (11753110_a_at) / RFU CDHR5 (11726645_a_at) / Fold change /veh CDHR5 (11726645_a_at) / RFU RCAN1 (11760418_a_at) / Fold change /veh RCAN1 (11760418_a_at) / RFU FAM167A (11723789_a_at) / Fold change /veh FAM167A (11723789_a_at) / RFU FAM26E (11764081_at) / Fold change /veh FAM26E (11764081_at) / RFU ISYNA1 (11749810_s_at) / Fold change /veh ISYNA1 (11749810_s_at) / RFU ACY1 (11761880_at) / Fold change /veh ACY1 (11761880_at) / RFU 11764098_at / Fold change /veh 11764098_at / RFU SAMD14 (11745864_x_at) / Fold change /veh SAMD14 (11745864_x_at) / RFU NPB (11741838_a_at) / Fold change /veh NPB (11741838_a_at) / RFU TMPRSS6 (11731388_a_at) / Fold change /veh TMPRSS6 (11731388_a_at) / RFU KRTAP10-2 (11738614_at) / Fold change /veh KRTAP10-2 (11738614_at) / RFU ARHGAP8 /// PRR5-ARHGAP8 (11727945_x_at) / Fold change /veh ARHGAP8 /// PRR5-ARHGAP8 (11727945_x_at) / RFU KRTAP5-7 /// NADSYN1 (11734609_at) / Fold change /veh KRTAP5-7 /// NADSYN1 (11734609_at) / RFU RASL12 (11751679_a_at) / Fold change /veh RASL12 (11751679_a_at) / RFU CDKN2B (11736163_a_at) / Fold change /veh CDKN2B (11736163_a_at) / RFU PRF1 (11729649_at) / Fold change /veh PRF1 (11729649_at) / RFU, ZNF638 /// ZNF638-IT1 / Fold change vs veh, ZNF638 /// ZNF638-IT1 / RFU, PANK3 / Fold change vs veh, PANK3 / RFU, SH3YL1 / Fold change vs veh, SH3YL1 / RFU, ZEB2 / Fold change vs veh, ZEB2 / RFU, NRIP1 / Fold change vs veh, NRIP1 / RFU, PTTG1IP / Fold change vs veh, PTTG1IP / RFU, CAPN2 / Fold change vs veh, CAPN2 / RFU, MED14 / Fold change vs veh, MED14 / RFU, SNORA58 / Fold change vs veh, SNORA58 / RFU, C1orf63 / Fold change vs veh, C1orf63 / RFU, LRRFIP1 / Fold change vs veh, LRRFIP1 / RFU, NDUFAF7 / Fold change vs veh, NDUFAF7 / RFU, SLC12A2 / Fold change vs veh, SLC12A2 / RFU, IBTK / Fold change vs veh, IBTK / RFU, ESF1 / Fold change vs veh, ESF1 / Fold change vs veh, TMEM50B / RFU, TAOK1 / Fold change vs veh, TAOK1 / RFU, ACBD3 / Fold change vs veh, ACBD3 / RFU, TMA16 / Fold change vs veh, TMA16 / RFU, RWDD3 / Fold change vs veh, RWDD3 / RFU, BCAT1 / Fold change vs veh, BCAT1 / RFU, EDEM3 / Fold change vs veh, EDEM3 / RFU, TMEM33 / Fold change vs veh, TMEM33 / RFU, WDR75 / Fold change vs veh, WDR75 / RFU, AHCTF1 / Fold change vs veh, AHCTF1 / RFU, TFRC / Fold change vs veh, TFRC / RFU, ZDHHC17 / Fold change vs veh, ZDHHC17 / RFU, NOM1 / Fold change vs veh, NOM1 / RFU, ARL8B / Fold change vs veh, ARL8B / RFU, ZBTB11 / Fold change vs veh, ZBTB11 / RFU, TAMM41 / Fold change vs veh, TAMM41 / RFU, KIAA1704 /// LOC100996395 / Fold change vs veh, KIAA1704 /// LOC100996395 / RFU, ING1 / Fold change vs veh, ING1 / RFU, TRMT61B / Fold change vs veh, TRMT61B / RFU, FUBP3 / Fold change vs veh, FUBP3 / RFU, TP53 / Fold change vs veh, TP53 / RFU, TNKS2 / Fold change vs veh, TNKS2 / RFU, ZFP14 / Fold change vs veh, ZFP14 / RFU, ACTR2 / Fold change vs veh, ACTR2 / RFU, PPP3R1 / Fold change vs veh, PPP3R1 / RFU, PIK3R1 / Fold change vs veh, PIK3R1 / RFU, HNRNPA1 / Fold change vs veh, HNRNPA1 / RFU, RNF170 / Fold change vs veh, RNF170 / RFU, ZNF28 / Fold change vs veh, ZNF28 / RFU, RNGTT / Fold change vs veh, RNGTT / RFU, OGT / Fold change vs veh, OGT / RFU, BRD1 / Fold change vs veh, BRD1 / RFU, MARS / Fold change vs veh, MARS / RFU, ZNF655 / Fold change vs veh, ZNF655 / RFU, FAHD1 / Fold change vs veh, FAHD1 / RFU, BDP1 / Fold change vs veh, BDP1 / RFU, LRRCC1 / Fold change vs veh, LRRCC1 / RFU, ARID1A / Fold change vs veh, ARID1A / RFU, ZNF146 / Fold change vs veh, ZNF146 / RFU, ZNF330 / Fold change vs veh, ZNF330 / RFU, GPN3 / Fold change vs veh, GPN3 / RFU, C9orf123 / Fold change vs veh, C9orf123 / RFU, N4BP2L2 / Fold change vs veh, N4BP2L2 / RFU, ARFIP1 / Fold change vs veh, ARFIP1 / RFU, FAM179B / Fold change vs veh, FAM179B / RFU, BCL10 / Fold change vs veh, BCL10 / RFU, UHRF1BP1L / Fold change vs veh, UHRF1BP1L / RFU, BET1 / Fold change vs veh, BET1 / RFU, CNOT2 / Fold change vs veh, CNOT2 / RFU, ZNF268 / Fold change vs veh, ZNF268 / Fold change vs veh, ZNF507 / RFU, DGCR2 / Fold change vs veh, DGCR2 / RFU, WDSUB1 / Fold change vs veh, WDSUB1 / Fold change vs veh, HSP90B1 /// MIR3652 / RFU, ADSS / Fold change vs veh, ADSS / RFU, GK / Fold change vs veh, GK / RFU, ZNF148 / Fold change vs veh, ZNF148 / RFU, TAF9 / Fold change vs veh, TAF9 / RFU, SLC1A5 / Fold change vs veh, SLC1A5 / RFU, SLMO2 / Fold change vs veh, SLMO2 / RFU, ABCC4 / Fold change vs veh, ABCC4 / RFU, LOC101060439 /// RAP1B / Fold change vs veh, LOC101060439 /// RAP1B / RFU, RFX7 / Fold change vs veh, RFX7 / RFU, GTPBP10 / Fold change vs veh, GTPBP10 / RFU, CNEP1R1 / Fold change vs veh, CNEP1R1 / RFU, BIVM-ERCC5 /// ERCC5 / Fold change vs veh, BIVM-ERCC5 /// ERCC5 / RFU, ILF3 / Fold change vs veh, ILF3 / RFU 11762660_at / Fold change /veh 11762660_at / RFU VCAN (11757783_s_at) / Fold change /veh VCAN (11757783_s_at) / RFU DDX43 (11728927_at) / Fold change /veh DDX43 (11728927_at) / RFU KRT8 (11758188_x_at) / Fold change /veh KRT8 (11758188_x_at) / RFU NKD1 (11759106_at) / Fold change /veh NKD1 (11759106_at) / RFU SRD5A1 (11742802_a_at) / Fold change /veh SRD5A1 (11742802_a_at) / RFU TPSAB1 /// TPSB2 (11721975_s_at) / Fold change /veh TPSAB1 /// TPSB2 (11721975_s_at) / RFU GSTM3 (11746129_a_at) / Fold change /veh GSTM3 (11746129_a_at) / RFU IL23R (11737362_x_at) / Fold change /veh IL23R (11737362_x_at) / RFU TMEM51 (11727254_a_at) / Fold change /veh TMEM51 (11727254_a_at) / RFU PIWIL2 (11732686_x_at) / Fold change /veh PIWIL2 (11732686_x_at) / RFU ORM1 (11744905_x_at) / Fold change /veh ORM1 (11744905_x_at) / RFU CCDC152 (11743942_at) / Fold change /veh CCDC152 (11743942_at) / RFU ECM1 (11717891_a_at) / Fold change /veh ECM1 (11717891_a_at) / RFU IL23R (11748794_a_at) / Fold change /veh IL23R (11748794_a_at) / RFU TNFAIP8L3 (11732012_x_at) / Fold change /veh TNFAIP8L3 (11732012_x_at) / RFU MBOAT4 (11741988_at) / Fold change /veh MBOAT4 (11741988_at) / RFU 11764193_at / Fold change /veh 11764193_at / RFU TMEM53 (11763286_at) / Fold change /veh TMEM53 (11763286_at) / RFU MAGEB2 (11727129_at) / Fold change /veh MAGEB2 (11727129_at) / RFU TMEM200A (11744735_a_at) / Fold change /veh TMEM200A (11744735_a_at) / RFU CCDC152 (11751479_a_at) / Fold change /veh CCDC152 (11751479_a_at) / RFU FAM211A (11726209_a_at) / Fold change /veh FAM211A (11726209_a_at) / RFU RGS16 (11746705_a_at) / Fold change /veh RGS16 (11746705_a_at) / RFU VCAN (11755009_s_at) / Fold change /veh VCAN (11755009_s_at) / RFU RHOB (11743442_s_at) / Fold change /veh RHOB (11743442_s_at) / RFU RGS16 (11720943_a_at) / Fold change /veh RGS16 (11720943_a_at) / RFU RGS16 (11720944_at) / Fold change /veh RGS16 (11720944_at) / RFU, VPS4B / Fold change vs veh, VPS4B / RFU, CREB1 / Fold change vs veh, CREB1 / RFU, DNAJC13 / Fold change vs veh, DNAJC13 / RFU, GNAQ / Fold change vs veh, GNAQ / RFU, CDK5R1 / Fold change vs veh, CDK5R1 / RFU, ZRANB3 / Fold change vs veh, ZRANB3 / RFU, CUL4A / Fold change vs veh, CUL4A / RFU, CCNY / Fold change vs veh, CCNY / RFU, UFL1 / Fold change vs veh, UFL1 / RFU, COG3 / Fold change vs veh, COG3 / RFU, DIAPH2 / Fold change vs veh, DIAPH2 / RFU, SKA2 / Fold change vs veh, SKA2 / RFU, AFF3 / Fold change vs veh, AFF3 / RFU, LMF1 / Fold change vs veh, LMF1 / RFU, IPO11 / Fold change vs veh, IPO11 / RFU, DFFB / Fold change vs veh, DFFB / RFU, FOXP1 / Fold change vs veh, FOXP1 / RFU, CARD8 / Fold change vs veh, CARD8 / RFU, STRN3 / Fold change vs veh, STRN3 / RFU, ADK / Fold change vs veh, ADK / RFU, RASSF2 / Fold change vs veh, RASSF2 / RFU, WIPF1 / Fold change vs veh, WIPF1 / RFU, LARP1B / Fold change vs veh, LARP1B / RFU, RASA1 / Fold change vs veh, RASA1 / RFU, RB1 / Fold change vs veh, RB1 / RFU, PPFIA1 / Fold change vs veh, PPFIA1 / RFU, MAT2A / Fold change vs veh, MAT2A / RFU, CCT5 / Fold change vs veh, CCT5 / RFU, WDR92 / Fold change vs veh, WDR92 / RFU, CUX1 / Fold change vs veh, CUX1 / RFU, TTC7A / Fold change vs veh, TTC7A / RFU, TMEM135 / Fold change vs veh, TMEM135 / RFU, DEPTOR / Fold change vs veh, DEPTOR / RFU, CPM / Fold change vs veh, CPM / RFU, DNAJB6 / Fold change vs veh, DNAJB6 / RFU, CACNA2D3 / Fold change vs veh, CACNA2D3 / RFU, DTX4 / Fold change vs veh, DTX4 / RFU, TFCP2 / Fold change vs veh, TFCP2 / RFU, GMCL1 /// GMCL1P1 / Fold change vs veh, GMCL1 /// GMCL1P1 / RFU, AEBP2 / Fold change vs veh, AEBP2 / RFU, SNHG1 /// SNORD22 /// SNORD25 /// SNORD26 /// SNORD27 /// SNORD28 /// SNORD29 /// SNORD31 / Fold change vs veh, SNHG1 /// SNORD22 /// SNORD25 /// SNORD26 /// SNORD27 /// SNORD28 /// SNORD29 /// SNORD31 / Fold change (Aza/veh), C12orf56 (ProbeSet 11735607_a_at) / Fold change (ACY-1035/veh), C12orf56 (ProbeSet 11735607_a_at) / Fold change (Aza/veh), FGFR1OP (ProbeSet 11751329_s_at) / Fold change (ACY-1035/veh), FGFR1OP (ProbeSet 11751329_s_at) / Fold change (Aza/veh), VPS36 (ProbeSet 11739960_a_at) / Fold change (ACY-1035/veh), VPS36 (ProbeSet 11739960_a_at) / RFU SYPL1 (11715823_x_at) / Fold change /veh SYPL1 (11715823_x_at) / RFU IGFBP7 (11715501_s_at) / Fold change /veh IGFBP7 (11715501_s_at) / RFU REEP3 (11722064_at) / Fold change /veh REEP3 (11722064_at) / RFU IGLL1 (11728026_x_at) / Fold change /veh IGLL1 (11728026_x_at): dose or concentration left out as unconfirmed. The settings on record: MV-4-11 cells, 48 hours.

Turning to `Nc1ccc(-c2cccs2)cc1NC(=O)c1ccc2c(c1)cc(C1CC1)n2CCN1CCOCC1` [ACY-1035], the “Fold change /veh SYPL1 (11715823_x_at)” value is recorded as 0.54.

(Values after publication PMC5218480 (PLoS ONE, 2017).)
